Laboratory results as given in patent US7488730B2, “N-(1,2,3,4-tetrahydronaphthalen-1-yl)-4-phenyl-1-piperazinealkylamide derivatives, and therapeutic use thereof as 5-HT7 receptor ligands” (Universita Degli Studi Di Bari, priority 2005, dated 2009).
“Also recorded” adds a separate entry of the source. Structures can show the parent of a compound that is named as a salt.

Experiments:
[1] = target: T1, rat cloned 5-HT7 receptor (Rattus norvegicus, UniProt P32305); test: Radioligand binding assay ([3H]-LSD) at rat cloned 5-HT7Rs; settings: for Ki: [3H]-LSD, rat recombinant 5-HT7R expressed in HEK-293 cells
T1 construct: purchased PerkinElmer-NEN; host or cells: HEK-293
Experimental: Rat recombinant serotonin 5-HT7R expressed in HEK-293 cells were purchased from PerkinElmer-NEN (Betsville, Md., USA).
Radioligand Binding Assay at Rat Cloned 5-HT7Rs. Binding of [^3H]-LSD at rat cloned 5-HT7 receptor was performed according to a known method. In 1 mL of incubation buffer (50 mM Tris, 10 mM MgCl2 and 0.5 mM EDTA, pH 7.4) were suspended 30 μg of membranes, 2.5 nM [^3H]-LSD, the drugs or reference compound (six to nine concentrations). The samples were incubated for 60 min at 37° C. The incubation was stopped by rapid filtration on GF/A glass fiber filters (pre-soaked in 0.5% polyethylenimine for 30 min). The filters were washed with 3 ? 3 mL of ice-cold buffer (50 mM Tris, pH 7.4). Nonspecific binding was determined in the presence of 10 μM 5-CT. Approximately 90% of specific binding was determined under these conditions.

5-HT1A receptors = target: T2, 5-HT1A receptors (Rattus norvegicus, UniProt P19327); settings: for Ki: read-out: Ki, nM 5-HT1A, [3H]-8-OH-DPAT, rat hippocampal membranes
T2 sequence (P19327 1-422): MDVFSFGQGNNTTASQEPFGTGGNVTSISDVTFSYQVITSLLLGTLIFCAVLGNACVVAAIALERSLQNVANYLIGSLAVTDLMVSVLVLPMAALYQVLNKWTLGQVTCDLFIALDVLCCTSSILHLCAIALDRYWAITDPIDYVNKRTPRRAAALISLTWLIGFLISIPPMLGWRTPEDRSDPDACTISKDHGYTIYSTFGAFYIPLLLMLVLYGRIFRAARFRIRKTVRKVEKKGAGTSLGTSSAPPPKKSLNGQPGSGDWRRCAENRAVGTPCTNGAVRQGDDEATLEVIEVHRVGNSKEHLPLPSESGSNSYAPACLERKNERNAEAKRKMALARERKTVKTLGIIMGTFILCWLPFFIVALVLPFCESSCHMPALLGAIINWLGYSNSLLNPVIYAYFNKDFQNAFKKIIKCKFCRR
Experimental: Radioligand Binding Assay at Rat Hippocampal Membranes 5-HT1A Receptors. Binding experiments were performed according to a known method. Rats were killed by decapitation, the brain was quickly removed, and the hippocampus was dissected. […] The homogenate was centrifuged at 48000 g for 15 min at 4° C. The supernatant was discarded, and the pellet was resuspended in 25 mL of buffer, then preincubated for 10 min at 37° C. The homogenate was centrifuged at 48000 g for 15 min at 4° C. The supernatant was discarded, and the final pellet was stored at −80° C. until used. […] For competitive inhibition experiments various concentrations of drugs studied were incubated. […] Samples were incubated at 37° C. for 20 min and then filtered on Whatman GF/B glass microfiber filters.
Statistical Analysis. […] The value for the inhibition constant, Ki, was calculated by using the Cheng-Prusoff equation.

5-HT7 receptor = 5-HT7 receptor (Cavia porcellus, UniProt P50407); test: Isolated guinea-pig ileum assay: relaxation of substance P-induced contraction; settings: for PA2 (vs SB-269970): in the presence of antagonist SB-269970 (0.1 μM-3 μM); for 5-HT7 intrinsic activity (in words): isolated guinea-pig ileum; for Emax: read-out: Maximal Effect %; for Schild plot: vs SB-269970, p value in parentheses
Experimental: Isolated Guinea-Pig Ileum Assay. Guinea-pigs were anesthetized and then decapitated and the proximal ileum removed. […] Changes in tension of the tissue were recorded by Fort 10 Original WPI isometric transducer (2Biological Instruments, Italy) connected to a PowerLab/400 workstation. […] Tested compounds were added 3 min before substance P addition.
The isolated guinea pig ileum was equilibrated for 75 min with antagonist before constructing concentration-response curves of tested compounds.
Tissue responses were recorded as gram changes in isometric tension and expressed as percentage of reduction in the height of the contraction.
Agonist potencies, expressed as EC50, were obtained from non-linear iterative curve fitting by [sequence] PRISM®.

5-HT2A receptors = 5-HT2A receptors (Rattus norvegicus, UniProt P14842); test: Radioligand binding assay ([3H]-ketanserin) at rat cortex membranes 5-HT2A receptors; settings: read-out: Ki, nM 5-HT2A; [3H]-ketanserin, rat cortex membranes
5-HT2A receptors, sequence (P14842 whole entry): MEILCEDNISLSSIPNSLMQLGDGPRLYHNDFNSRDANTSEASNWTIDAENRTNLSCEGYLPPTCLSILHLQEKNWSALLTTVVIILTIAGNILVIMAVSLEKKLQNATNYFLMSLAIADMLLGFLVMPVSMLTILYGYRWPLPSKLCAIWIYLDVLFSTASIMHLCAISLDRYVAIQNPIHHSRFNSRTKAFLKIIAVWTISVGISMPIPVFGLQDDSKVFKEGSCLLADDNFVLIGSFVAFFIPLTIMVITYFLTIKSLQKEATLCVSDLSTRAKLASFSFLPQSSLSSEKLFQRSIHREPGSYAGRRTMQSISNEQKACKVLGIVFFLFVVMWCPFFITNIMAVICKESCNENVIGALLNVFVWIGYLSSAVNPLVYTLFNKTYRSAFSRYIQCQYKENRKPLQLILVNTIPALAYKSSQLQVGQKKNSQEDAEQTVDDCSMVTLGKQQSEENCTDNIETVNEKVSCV
Experimental: Radioligand Binding Assay at Rat Cortex Membranes 5-HT2A Receptors. […] Rats were killed by decapitation, the brain was quickly removed, and the cortex was dissected. […] The homogenate was centrifuged at 2000 g for 10 min at 4° C. The supernatant was saved, and the pellet was resuspended in 25 mL of buffer. The surnatantes were collected and diluted 1:10 w/w with 10 mM Tris pH 7.4. The homogenate was centrifugated at 35000 g for 15 min at 4° C. The supernatant was discarded, and the final pellet was stored at −80° C. until used. […] For competitive inhibition experiments various concentrations of drugs studied were incubated. […] Samples were incubated at 37° C. for 15 min and then filtered on Whatman GF/B glass microfiber filters.
Statistical Analysis. […] PRISM® program. The value for the inhibition constant, Ki, was calculated by using the Cheng-Prusoff equation.

T1 sequence (P32305 whole entry): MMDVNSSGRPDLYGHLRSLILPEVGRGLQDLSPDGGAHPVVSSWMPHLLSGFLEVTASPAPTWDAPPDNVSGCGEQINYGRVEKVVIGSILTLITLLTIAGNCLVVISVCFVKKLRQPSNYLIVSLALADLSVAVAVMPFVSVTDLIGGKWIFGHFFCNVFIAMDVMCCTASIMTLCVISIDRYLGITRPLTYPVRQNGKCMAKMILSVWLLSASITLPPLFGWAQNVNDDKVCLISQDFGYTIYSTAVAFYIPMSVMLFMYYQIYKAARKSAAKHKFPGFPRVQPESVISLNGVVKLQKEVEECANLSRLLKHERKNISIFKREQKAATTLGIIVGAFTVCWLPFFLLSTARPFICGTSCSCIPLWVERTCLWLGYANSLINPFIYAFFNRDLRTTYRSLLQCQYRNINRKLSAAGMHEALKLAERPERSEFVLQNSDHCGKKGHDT
5-HT7 receptor, sequence (P50407 whole entry): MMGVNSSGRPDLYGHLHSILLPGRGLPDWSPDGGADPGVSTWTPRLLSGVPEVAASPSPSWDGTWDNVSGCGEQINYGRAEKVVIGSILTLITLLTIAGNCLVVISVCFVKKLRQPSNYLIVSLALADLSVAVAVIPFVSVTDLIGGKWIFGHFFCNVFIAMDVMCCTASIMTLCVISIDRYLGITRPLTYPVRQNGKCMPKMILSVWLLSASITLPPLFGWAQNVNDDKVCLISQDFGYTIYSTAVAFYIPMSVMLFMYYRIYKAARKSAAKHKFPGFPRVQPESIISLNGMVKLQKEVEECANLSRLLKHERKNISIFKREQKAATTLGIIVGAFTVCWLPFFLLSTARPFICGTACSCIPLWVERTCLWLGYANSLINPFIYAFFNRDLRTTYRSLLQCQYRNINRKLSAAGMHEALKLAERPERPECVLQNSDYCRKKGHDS

Row | Compound | Ki [1] [nM] | Ki (5-HT1A receptors) [nM] | Ki (5-HT2A receptors) [nM] | further results
1 | COc1ccc2c(c1)C(NC(=O)CCCCN1CCN(c3ccccc3OC)CC1)CCC2 (stereo not shown) (as salt: HCl) (hydrate or solvate) [Compound 21] | – | – | – | melting point: 187 to 188 °C
2 | COc1ccccc1N1CCN(CCCCC(=O)NC2CCCc3ccccc32)CC1 (stereo not shown) (as salt: HCl) (hydrate or solvate) [Compound 27, 4-(2-Methoxyphenyl)-N-(1,2,3,4-tetrahydronaphthalen-1-yl)-1-piperazinepentanamide] | – | – | – | melting point: 199 to 200 °C
3 | N#Cc1ccccc1N1CCN(CCCCCC(=O)NC2CCCc3ccccc32)CC1 (stereo not shown) (as salt: HCl) (hydrate or solvate) [Compound 33] | – | – | – | melting point: 175 to 178 °C
4 | CC(=O)c1ccccc1N1CCN(CCCCCC(=O)NC2CCCc3ccccc32)CC1 (stereo not shown) (as salt: HCl) (hydrate or solvate) [Compound 34, 4-(2-Acetylphenyl)-N-(1,2,3,4-tetrahydronaphthalen-1-yl)-1-piperazinehexanamide] | – | – | – | melting point: 136 to 139 °C
5 | COc1ccc(OC)c(N2CCN(CCCCCC(=O)NC3CCCc4ccccc43)CC2)c1 (stereo not shown) (as salt: HCl) (hydrate or solvate) [Compound 36] | – | – | – | melting point: 124 to 126 °C
6 | NCCc1c[nH]c2ccc(C(N)=O)cc12 [5-CT, reference compound] | 0.51 ± 0.01 | – | – | –
7 | N#Cc1ccccc1N1CCN(CCCCCC(=O)NC2CCCc3ccccc32)CC1 (stereo not shown) [Compound 33] | 48.7 ± 2.5 | 16.6 ± 1.4 | 700 ± 25 | 5-HT7R affinity (in words) [1]: reasonably good 5-HT7R affinity
8 | COc1cc(Cl)ccc1N1CCN(CCCCCC(=O)NC2CCCc3ccccc32)CC1 (stereo not shown) [Compound 35] | 122 ± 14 | 332 ± 27 | 7170 ± 150 | –
9 | COc1ccc(OC)c(N2CCN(CCCCCC(=O)NC3CCCc4ccccc43)CC2)c1 (stereo not shown) [Compound 36] | 70.3 ± 5.2 | 911 ± 23 | 259 ± 20 | –
10 | COc1cccc(N2CCN(CCCCCC(=O)NC3CCCc4ccccc43)CC2)c1 (stereo not shown) [Compound 37] | 119 ± 20 | 105 ± 12 | 142 ± 20 | –
11 | N#Cc1cccc(N2CCN(CCCCCC(=O)NC3CCCc4ccccc43)CC2)c1 (stereo not shown) [Compound 39] | 97.8 ± 5.6 | 291 ± 15 | 909 ± 85 | –
12 | N#Cc1ccc(N2CCN(CCCCCC(=O)NC3CCCc4ccccc43)CC2)cc1 (stereo not shown) [Compound 40] | 1400 ± 120 | – | – | 5-HT7R affinity (in words) [1]: nearly devoid of 5-HT7R affinity
13 | CC(=O)c1cccc(N2CCN(CCCCCC(=O)NC3CCCc4ccccc43)CC2)c1 (stereo not shown) [Compound 41] | 496 ± 24 | 676 ± 32 | 1130 ± 200 | –
14 | CC(=O)c1ccc(N2CCN(CCCCCC(=O)NC3CCCc4ccccc43)CC2)cc1 (stereo not shown) [Compound 42] | 2640 ± 130 | – | – | 5-HT7R affinity (in words) [1]: nearly devoid of 5-HT7R affinity
15 | O=C(CCCCCN1CCN(c2ccccc2O)CC1)NC1CCCc2ccccc21 (stereo not shown) [Compound 46, 4-(2-Hydroxyphenyl)-N-(1,2,3,4-tetrahydronaphthalen-1-yl)-1-piperazinehexanamide] | 11.4 ± 2.3 | 24 ± 6.3 | 3390 ± 225 | 5-HT7R affinity (in words) [1]: high affinity; 5-HT7 intrinsic activity (in words) (5-HT7 receptor): antagonist; Emax (5-HT7 receptor): 0%; Schild plot (5-HT7 receptor): 1.6 (p < 0.005)
16 | O=C(CCCCCN1CCN(c2ccccc2Cl)CC1)NC1CCCc2ccccc21 (stereo not shown) [Compound 47] | 40.1 ± 6.7 | 96 ± 8 | 301 ± 12 | –
17 | O=C(CCCCCN1CCN(c2ccccc2[N+](=O)[O-])CC1)NC1CCCc2ccccc21 (stereo not shown) [Compound 48] | 63.3 ± 7.5 | 183 ± 15 | 282 ± 35 | –
18 | O=C(CCCCCN1CCN(c2ccccc2)CC1)NC1CCCc2ccccc21 (stereo not shown) [Compound 50] | 65.6 ± 4.7 | 128 ± 22 | 77.8 ± 5.7 | –

The next lines start with results.

Row | Ki [1] [nM] | Ki (5-HT1A receptors) [nM] | Compound | Ki (5-HT2A receptors) [nM] | further results
19 | 269 ± 18 | – | COc1ccccc1N1CCN(CCC(=O)NC2CCCc3c(OC)cccc32)CC1 (stereo not shown) [Compound 6] | – | 5-HT7R affinity (in words) [1]: moderate affinities; 5-HT1A receptor affinity (in words) (5-HT1A receptors): moderate affinities
20 | 35 ± 3.2 | 254 ± 65 | COc1ccccc1N1CCN(CCCC(=O)NC2CCCc3c(OC)cccc32)CC1 (stereo not shown) [Compound 7, N-(5-methoxy-1,2,3,4-tetrahydronaphthalen-1-yl)-4-(2-methoxyphenyl)-1-piperazinebutanamide] | – | 5-HT7R affinity (in words) [1]: moderate affinities; 5-HT1A receptor affinity (in words) (5-HT1A receptors): moderate affinities
21 | 28.2 ± 4.2 | 54.4 ± 6.5 | COc1ccccc1N1CCN(CCCCC(=O)NC2CCCc3c(OC)cccc32)CC1 (stereo not shown) [Compound 15] | – | –
22 | 20 ± 2.5 | 24.5 ± 1.8 | COc1ccccc1N1CCN(CCCCCC(=O)NC2CCCc3c(OC)cccc32)CC1 (stereo not shown) [Compound 16] | – | –
23 | 186 ± 40 | 257 ± 25 | COc1ccc2c(c1)CCCC2NC(=O)CCCN1CCN(c2ccccc2OC)CC1 (stereo not shown) [Compound 17] | – | –
24 | 43.1 ± 4.8 | 23.2 ± 2.3 | COc1ccc2c(c1)CCCC2NC(=O)CCCCN1CCN(c2ccccc2OC)CC1 (stereo not shown) [Compound 18] | – | –
25 | 30 ± 3.15 | 55 ± 8 | COc1ccc2c(c1)CCCC2NC(=O)CCCCCN1CCN(c2ccccc2OC)CC1 (stereo not shown) [Compound 19] | – | –
26 | 129 ± 5 | 160 ± 12 | COc1ccc2c(c1)C(NC(=O)CCCN1CCN(c3ccccc3OC)CC1)CCC2 (stereo not shown) [Compound 20] | – | –
27 | 38.4 ± 4.6 | 78.9 ± 6.3 | COc1ccc2c(c1)C(NC(=O)CCCCN1CCN(c3ccccc3OC)CC1)CCC2 (stereo not shown) [Compound 21] | – | –
28 | 41 ± 11 | 39 ± 6.5 | COc1ccc2c(c1)C(NC(=O)CCCCCN1CCN(c3ccccc3OC)CC1)CCC2 (stereo not shown) [Compound 22] | – | –
29 | 154 ± 35 | 441 ± 20 | COc1ccccc1N1CCN(CCCC(=O)NC2CCCc3cccc(OC)c32)CC1 (stereo not shown) [Compound 23, N-(8-Methoxy-1,2,3,4-tetrahydronaphthalen-1-yl)4-(2-methoxyphenyl)-1-piperazinebutanamide] | – | –
30 | 64 ± 12 | 72 ± 18 | COc1ccccc1N1CCN(CCCCC(=O)NC2CCCc3cccc(OC)c32)CC1 (stereo not shown) [Compound 24] | – | –
31 | 31.4 ± 3.5 | 30 ± 2.6 | COc1ccccc1N1CCN(CCCCCC(=O)NC2CCCc3cccc(OC)c32)CC1 (stereo not shown) [Compound 25] | – | –
32 | 92 ± 12 | 245 ± 20 | COc1ccccc1N1CCN(CCCC(=O)NC2CCCc3ccccc32)CC1 (stereo not shown) [Compound 26, 4-(2-Methoxyphenyl)-N-(1,2,3,4-tetrahydronaphthalen-1-yl)-1-piperazinebutanamide] | – | –
33 | 6.05 ± 0.25 | 9 ± 0.7 | COc1ccccc1N1CCN(CCCCC(=O)NC2CCCc3ccccc32)CC1 (stereo not shown) [Compound 27, 4-(2-Methoxyphenyl)-N-(1,2,3,4-tetrahydronaphthalen-1-yl)-1-piperazinepentanamide] | – | –
34 | 6.64 ± 0.6 | 8.6 ± 0.35 | COc1ccccc1N1CCN(CCCCCC(=O)NC2CCCc3ccccc32)CC1 (stereo not shown) [Compound 28, 4-(2-Methoxyphenyl)-N-(1,2,3,4-tetrahydronaphthalen-1-yl)-1-piperazinehexanamide] | – | 5-HT7R affinity (in words) [1]: high affinity; EC50 (5-HT7 receptor): 6320 ± 200 nM; PA2 (vs SB-269970) (5-HT7 receptor): 8.02 ± 1.40; 5-HT7 intrinsic activity (in words) (5-HT7 receptor): Full agonists; Emax (5-HT7 receptor): 91%; Schild plot (5-HT7 receptor): 1.0 (p < 0.0001)
35 | 4.14 ± 0.8 | 3.8 ± 0.1 | CC(=O)c1ccccc1N1CCN(CCCCCC(=O)NC2CCCc3ccccc32)CC1 (stereo not shown) [Compound 34, 4-(2-Acetylphenyl)-N-(1,2,3,4-tetrahydronaphthalen-1-yl)-1-piperazinehexanamide] | 12200 ± 350 | 5-HT7R affinity (in words) [1]: reasonably good 5-HT7R affinity; also recorded: high affinity; EC50 (5-HT7 receptor): 2460 ± 700 nM; PA2 (vs SB-269970) (5-HT7 receptor): 7.60 ± 0.49; 5-HT7 intrinsic activity (in words) (5-HT7 receptor): partial agonist; Emax (5-HT7 receptor): 79%; Schild plot (5-HT7 receptor): 1.3 (p < 0.0001)
36 | 2100 ± 150 | – | COc1ccc(N2CCN(CCCCCC(=O)NC3CCCc4ccccc43)CC2)cc1 (stereo not shown) [Compound 38] | – | 5-HT7R affinity (in words) [1]: nearly devoid of 5-HT7R affinity
37 | 15.2 ± 3.2 | 279 ± 44 | Cc1ccccc1N1CCN(CCCCCC(=O)NC2CCCc3ccccc32)CC1 (stereo not shown) [Compound 49, 4-(2-Methylphenyl)-N-(1,2,3,4-tetrahydronaphthalen-1-yl)-1-piperazinehexanamide] | 262 ± 24 | 5-HT7R affinity (in words) [1]: high affinity; EC50 (5-HT7 receptor): 1820 ± 720 nM; PA2 (vs SB-269970) (5-HT7 receptor): 7.80 ± 0.40; 5-HT7 intrinsic activity (in words) (5-HT7 receptor): Full agonists; Emax (5-HT7 receptor): 98%; Schild plot (5-HT7 receptor): 0.9 (p < 0.0001)
